Reference: US7504517B2, “Kv1.5 potassium channel inhibitors” (Wyeth, priority 2006, dated 2009)

What was measured:
[1] = system: L-type calcium channels; test: FLIPR L-Type Calcium Channel Assay; type: cell-based, murine; details: HL-1 cells expressing endogenous L-type calcium channels; calcium influx after 20 mM KCl; read-out: L-type Ca^2+ IC50
Protocol: 50 μL per well test compounds are added to the plates and further incubated for 15 min. in a 5% CO2 37° C. incubator. All final solutions contain the anion exchange inhibitor, probenecid (2.5 mM). The 96-well plates are then placed in the center position of the FLIPR 1 (Fluorometric Imaging Plate Reader, Molecular Devices Corporation). Cell monolayers in each well are simultaneously illuminated at 488 nm with an Argon ion laser, and fluorescence emission is monitored using a 510-570 nm bandpass filter and a cooled CCD camera. To depolarize the plasma membrane and activate L-type calcium channels, 50 μL per well of 20 mM KCl (final concentration) are dispensed simultaneously to all 96 wells using the FLIPR's automatic 96-well pipettor. Fluorescence measurements are captured for 5 min. following KCl addition. Calcium influx, expressed as % control, is calculated for each concentration of test compound and concentration-response curves and IC50 values are generated using GraphPad Prism 4.0.

[2] = target: T1, Kv1.5 (Homo sapiens, UniProt P22460); test: Kv1.5 Patch Clamp EP; type: cell-based; details: 1.0 μM, single point; whole cell patch clamp, Kv1.5 stably over expressed in HEK or LTK- cells
T1 construct: expressed in transfected cells; host or cells: HEK or LTK- cells
T1 sequence (P22460 whole entry): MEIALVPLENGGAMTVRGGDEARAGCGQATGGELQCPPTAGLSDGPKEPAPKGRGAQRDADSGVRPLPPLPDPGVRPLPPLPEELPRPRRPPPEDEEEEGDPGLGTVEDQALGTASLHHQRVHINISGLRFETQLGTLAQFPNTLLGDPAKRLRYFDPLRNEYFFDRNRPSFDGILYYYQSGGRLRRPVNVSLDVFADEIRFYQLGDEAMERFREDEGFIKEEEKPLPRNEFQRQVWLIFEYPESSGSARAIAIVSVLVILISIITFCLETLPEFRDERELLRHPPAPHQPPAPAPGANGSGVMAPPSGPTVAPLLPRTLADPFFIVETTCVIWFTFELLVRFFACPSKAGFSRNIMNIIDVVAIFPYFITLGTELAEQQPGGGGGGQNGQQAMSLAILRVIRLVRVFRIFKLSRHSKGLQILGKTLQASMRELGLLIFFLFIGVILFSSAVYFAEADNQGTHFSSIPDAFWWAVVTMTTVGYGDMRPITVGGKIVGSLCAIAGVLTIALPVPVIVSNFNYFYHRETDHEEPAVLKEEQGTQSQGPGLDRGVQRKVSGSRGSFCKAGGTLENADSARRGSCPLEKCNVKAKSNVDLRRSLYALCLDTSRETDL
Protocol: The external solution is standard Tyrodes solution. […] Inhibition was measured at the end of the 1 second pulses and expressed relative to controls. Initial Kv1.5 inhibition is estimated by single point determinations done at 1 μM.

IC50 [1] [µM]	inhibition at 1 µM [2] [%]	Structure (SMILES)
5.5	59	COc1ccc(CCN2C(=O)N(N)CC2c2ccc(C)c(C)c2)cc1 (centres unmarked) [Compound 1, 1-Amino-3-[2-(4-methoxyphenyl)ethyl]-4-(3,4-dimethylphenyl)-2-imidazolidinone]
26	72	COc1ccc(CCN2C(=O)N(NS(C)(=O)=O)CC2c2ccc(Cl)cc2)cc1 (centres unmarked) [Compound 21, 1-(Methylsulfonylamino)-3-[2-(4-methoxyphenyl)ethyl]-4-(4-chlorophenyl)-2-imidazolidinone]
4	84	CCCCS(=O)(=O)NN1CC(c2ccc(C3CC3)cc2)N(CCc2ccc(OC)cc2)C1=O (centres unmarked) [Compound 31, 1-(Butylsulfonylamino)-3-[(4-methoxyphenyl)ethyl]-4-(4-cyclopropylphenyl)-2-imidazolidinone]
	44	COc1ccc(CCN2C(=O)N(NS(=O)(=O)CC(=O)NCC3CC3)C[C@H]2c2ccc(OC)cc2)cc1 [Compound 136, N-(cyclopropylmethyl)-2-({(4R)-4-(4-methoxyphenyl)-3-[2-(4-methoxyphenyl)ethyl]-2-oxoimidazolidin-1-yl}sulfamoyl)acetamide]
	4	COc1ccc(CCN2C(=O)N(NS(C)(=O)=O)CC2c2ccc(F)cc2)cc1 (centres unmarked) [Compound 137, N-{4-(4-fluorophenyl)-3-[2-(4-methoxyphenyl)ethyl]-2-oxoimidazolidin-1-yl}methanesulfonamide]
	7	COc1ccc(CCN2C(=O)N(NCc3nccn3C)CC2c2ccc(C)c(C)c2)cc1 (centres unmarked) [Compound 138, 4-(3,4-dimethylphenyl)-3-[2-(4-methoxyphenyl)ethyl]-1-{[(1-methyl-1H-imidazol-2-yl)methyl]amino}imidazolidin-2-one]
	14	COc1ccc(CCN2C(=O)N(NS(=O)(=O)Cc3cccnc3)CC2c2ccc(F)cc2)cc1 (centres unmarked) [Compound 139, N-{4-(4-fluorophenyl)-3-[2-(4-methoxyphenyl)ethyl]-2-oxoimidazolidin-1-yl}-1-pyridin-3-ylmethanesulfonamide]
	6	COc1ccc(CCN2C(=O)N(NS(C)(=O)=O)CC2C2(c3ccccc3)CC2)cc1 (centres unmarked) [Compound 140, N-{3-[2-(4-methoxyphenyl)ethyl]-2-oxo-4-(1-phenylcyclopropyl)imidazolidin-1-yl}methanesulfonamide]
	4	COCCOc1ccc(C2CN(N)C(=O)N2CCc2ccc(OC)cc2)cc1 (centres unmarked) [Compound 141, 1-amino-4-[4-(2-methoxyethoxy)phenyl]-3-[2-(4-methoxyphenyl)ethyl]imidazolidin-2-one]
	21	COc1ccc(CCN2C(=O)N(NS(C)(=O)=O)CC2c2ccc3ncccc3c2)cc1 (centres unmarked) [Compound 143, N-{3-[2-(4-methoxyphenyl)ethyl]-2-oxo-4-quinolin-6-ylimidazolidin-1-yl}methanesulfonamide]
	16	COc1ccc(CCN2C(=O)N(NS(C)(=O)=O)CC2c2ccc3c(c2)OCCO3)cc1OC (centres unmarked) [Compound 144, N-{4-(2,3-dihydro-1,4-benzodioxin-6-yl)-3-[2-(3,4-dimethoxyphenyl)ethyl]-2-oxoimidazolidin-1-yl}methanesulfonamide]
	42	COc1ccc(CCN2C(=O)N(NC(=O)c3cnccn3)CC2c2ccc(C(C)(C)C)cc2)cc1 (centres unmarked) [Compound 147, N-{4-(4-tert-butylphenyl)-3-[2-(4-methoxyphenyl)ethyl]-2-oxoimidazolidin-1-yl}pyrazine-2-carboxamide]
	2	COc1ccc(CCN2C(=O)N(NS(=O)(=O)C(F)(F)F)CC2c2ccc(C(C)(C)C)cc2)cc1 (centres unmarked) [Compound 148, N-{4-(4-tert-butylphenyl)-3-[2-(4-methoxyphenyl)ethyl]-2-oxoimidazolidin-1-yl}-1,1,1-trifluoromethanesulfonamide]
	9	COc1ccc(CCN2C(=O)N(NS(C)(=O)=O)CC2c2ccc(OC)nc2)cc1 (centres unmarked) [Compound 149, N-{3-[2-(4-methoxyphenyl)ethyl]-4-(6-methoxypyridin-3-yl)-2-oxoimidazolidin-1-yl}methanesulfonamide]
	17	COc1ccc(CCN2C(=O)N(N3CCN(C(N)=O)CC3)CC2c2ccc(C(C)(C)C)cc2)cc1 (centres unmarked) [Compound 150, 4-{4-(4-tert-butylphenyl)-3-[2-(4-methoxyphenyl)ethyl]-2-oxoimidazolidin-1-yl}piperazine-1-carboxamide]
	8	COCCOc1ccc(C2CN(NS(C)(=O)=O)C(=O)N2CCc2ccc(OC)cc2)cc1 (centres unmarked) [Compound 151, N-{4-[4-(2-methoxyethoxy)phenyl]-3-[2-(4-methoxyphenyl)ethyl]-2-oxoimidazolidin-1-yl}methanesulfonamide]

IC50 [1] [µM]	inhibition at 1 µM [2] [%]	Structure (SMILES)
	16	COc1ccc(C2CN(NS(C)(=O)=O)C(=O)N2CCc2ccc(OC(F)(F)F)cc2)cc1 (centres unmarked) [Compound 152, N-[4-(4-methoxyphenyl)-2-oxo-3-{2-[4-(trifluoromethoxy)phenyl]ethyl}imidazolidin-1-yl]methanesulfonamide]
	12	COc1ccc(CCN2C(=O)N(NS(=O)(=O)CS(C)(=O)=O)CC2c2ccc(OC)cc2)cc1 (centres unmarked) [Compound 153, N-{4-(4-methoxyphenyl)-3-[2-(4-methoxyphenyl)ethyl]-2-oxoimidazolidin-1-yl}-1-(methylsulfonyl)methanesulfonamide]
	7	COc1ccc(C2CN(N)C(=O)N2CCc2ccc(OC(F)F)cc2)cc1 (centres unmarked) [Compound 154, 1-amino-3-{2-[4-(difluoromethoxy)phenyl]ethyl}-4-(4-methoxyphenyl)imidazolidin-2-one]
	7	COc1ccc(CCN2C(=O)N(N)CC2C2(c3ccccc3)CC2)cc1 (centres unmarked) [Compound 156, 1-amino-3-[2-(4-methoxyphenyl)ethyl]-4-(1-phenylcyclopropyl)imidazolidin-2-one]
	10	COc1ccc(CCN2C(=O)N(NS(C)(=O)=O)CC2c2ccc(OC)c(OC)c2)cc1 (centres unmarked) [Compound 158, N-{4-(3,4-dimethoxyphenyl)-3-[2-(4-methoxyphenyl)ethyl]-2-oxoimidazolidin-1-yl}methanesulfonamide]
	4	COc1ccc(CCN2C(=O)N(N)CC2c2ccc(C)cc2)cc1 (centres unmarked) [Compound 159, 1-amino-3-[2-(4-methoxyphenyl)ethyl]-4-(4-methylphenyl)imidazolidin-2-one]
	8	COc1ccc(CCN2C(=O)N(NCc3cc[n+]([O-])cc3)CC2c2ccc(C)c(C)c2)cc1 (centres unmarked) [Compound 161, 4-(3,4-dimethylphenyl)-3-[2-(4-methoxyphenyl)ethyl]-1-{[(1-oxidopyridin-4-yl)methyl]amino}imidazolidin-2-one]
	8	CCC1(CC)CN(NS(=O)(=O)Cc2cccnc2)C(=O)N1CCc1ccc(OC)cc1 [Compound 162, N-{4,4-diethyl-3-[2-(4-methoxyphenyl)ethyl]-2-oxoimidazolidin-1-yl}-1-pyridin-3-ylmethanesulfonamide]
	16	COc1ccc(CCN2C(=O)N(N)CC2C2(c3ccc(F)cc3)CC2)cc1 (centres unmarked) [Compound 163, 1-amino-4-[1-(4-fluorophenyl)cyclopropyl]-3-[2-(4-methoxyphenyl)ethyl]imidazolidin-2-one]
	2	COc1ccc(CCN2C(=O)N(N)CC2c2ccc(OC(C)C)cc2)cc1 (centres unmarked) [Compound 164, 1-amino-4-(4-isopropoxyphenyl)-3-[2-(4-methoxyphenyl)ethyl]imidazolidin-2-one]
	11	COc1ccc(CCN2C(=O)N(NS(C)(=O)=O)CC2C2(c3ccc(F)cc3)CC2)cc1 (centres unmarked) [Compound 165, N-{4-[1-(4-fluorophenyl)cyclopropyl]-3-[2-(4-methoxyphenyl)ethyl]-2-oxoimidazolidin-1-yl}methanesulfonamide]
	41	COc1ccc(CCN2C(=O)N(NS(=O)(=O)N3CCN(C)CC3)CC2c2ccc(C)c(C)c2)cc1 (centres unmarked) [Compound 166, N-{4-(3,4-dimethylphenyl)-3-[2-(4-methoxyphenyl)ethyl]-2-oxoimidazolidin-1-yl}-4-methylpiperazine-1-sulfonamide]
	36	COc1ccc(CCN2C(=O)N(NS(N)(=O)=O)CC2c2ccc(OC)cc2)cc1 (centres unmarked) [Compound 167, N-{4-(4-methoxyphenyl)-3-[2-(4-methoxyphenyl)ethyl]-2-oxoimidazolidin-1-yl}sulfamide]
	16	CC(C)(C)c1ccc(C2CN(NS(C)(=O)=O)C(=O)N2CCc2ccc(OCCN3CCOCC3)cc2)cc1 (centres unmarked) [Compound 169, N-[4-(4-tert-butylphenyl)-3-{2-[4-(2-morpholin-4-ylethoxy)phenyl]ethyl}-2-oxoimidazolidin-1-yl]methanesulfonamide]
	9	COc1ccc(CCN2C(=O)N(NS(=O)(=O)CC(=O)O)CC2c2ccc(C3CC3)cc2)cc1 (centres unmarked) [Compound 174, [[[4-(4-cyclopropylphenyl)-3-[2-(4-methoxyphenyl)ethyl]-2-oxo-imidazolidin-1-yl]amino]sulfonyl]acetic acid]
	7	COc1ccc(CCN2C(=O)N(N)CC2c2ccc(OC)cc2)cc1 (centres unmarked) [Compound 175, 1-amino-4-(4-methoxyphenyl)-3-[2-(4-methoxyphenyl)ethyl]imidazolidin-2-one]
